Measured values: paper PMC12655637, “Design, Synthesis, and Mechanistic Study of Novel Ciprofloxacin/Thiazole Chalcone Hybrids as Potential Anticancer Agents” (Pharmaceuticals, 2025)

What was measured:
[1] = tested on: MDA-MB-468; assay: NCI-60 screening, one-dose (10 µM) and five-dose, SRB; assay type: cell-based, human; conditions: five-dose, MDA-MB-468
Excerpt: Control cells Test cells FLD
available usually at NCI library.
An aliquot of frozen drug concentrate is […]

[2] = tested on: SF-539; assay: as above; assay type: cell-based, human
[3] = tested on: SW-620; assay: as above; assay type: cell-based, human
[4] = tested on: MDA-MB231/ATCC; assay: as above; assay type: cell-based
[5] = tested on: TK-10; assay: as above; assay type: cell-based, human
[6] = tested on: A549/ATCC; assay: as above; assay type: cell-based, human
[7] = tested on: 60 human cancer cell lines; assay: NCI-60 screening, full panel (mean growth, MID a, ranges over all lines)
Protocol: The screening was performed in accordance with the protocols set forth by the Drug Evaluation Department of the National Cancer Institute (NCI), Bethesda, USA, for in vitro anticancer efficacy at a single concentration of 10 µM against a panel of 60 cancer cell lines derived from nine distinct organs (https://dctd.cancer.gov/data-tools-biospecimens/data (accessed on 15 March 2023 and 6 January 2024)) [37].
The log10 GI50, log10 TGI, and log10 LC50 values were subsequently calculated as the averages of the log10 values of the respective individual GI50, TGI, and LC50 measurements. Negative numbers signified the most sensitive cell lines.
One way to measure a compound’s selectivity is to divide its subpanel MID^b (in μM) by the MID^a (in μM), which is the average sensitivity of all cell lines to the test agent.
At the National Cancer Institute (NCI) in Bethesda, USA, researchers examined the anticancer potential of the target compounds under investigation using nine panels of sixty different cell lines obtained from nine different cancers that were housed in the NCI library. Following the protocols laid out by the National Cancer Institute (https://dctd.cancer.gov/data-tools-biospecimens/data (accessed on 15 March 2023 and 6 January 2024)), the screening procedures were carried out [37]. The anticancer screening was carried out at a single dose of 10^−5 M; the results obtained were expressed as growth inhibition (%).
The anti-cancer potential of the tested compounds was evaluated at the National cancer institute (NCI), Bethesda, USA, against 9 panels of 60 various cell lines derived from nine human tumours available usually at NCI library. The procedures for the screening were described in details in NCI website (dttp://www.dtp.nci.nih.gov.) and were done according to NCI protocols. The anticancer screening was carried out at single dose of 10^-5 M. The results obtained as growth inhibition (%).
Cell lines were grown in Roswell Park Memorial Institute medium (RPMI) with 5% fetal bovine serum and 2% μM L-glutamine. Cancer cells are inoculated into 96 well microtiter plates in 100 μL at plating densities ranging from 5000 to 40,000 cells/well depending on the doubling time of individual cell lines. Then microtiter plates are incubated at 37 °C, 5% CO2, 95% air and 100% relative humidity for 24 h prior to the addition of the tested compounds. After 24 h, two plates of each cell line are fixed in situ with trichloroacetic acid (TCA). The tested compounds were dissolved in dimethyl sulfoxide (DMSO) and stored in the freezer prior to use. An aliquot of frozen drug concentrate is diluted to the desired concentration with complete medium containing 50 μg/mL gentamicin.

[8] = tested on: HL-60(TB); assay: NCI-60 screening, one-dose (10 µM) and five-dose, SRB; assay type: cell-based, human; conditions: HL-60(TB)
[9] = tested on: MOLT-4; assay: as above; assay type: cell-based, human
[10] = tested on: SK-OV-3; assay: as above; assay type: cell-based, human
[11] = tested on: OVCAR-8; assay: as above; assay type: cell-based, human
[12] = tested on: NCI/ADR-RES; assay: as above; assay type: cell-based, human
[13] = tested on: SK-MEL-2; assay: as above; assay type: cell-based, human
[14] = tested on: CCRF-CEM; assay: as above; assay type: cell-based, human
[15] = tested on: NCI-H522; assay: as above; assay type: cell-based, human
[16] = Homo sapiens, five-dose, SF-539
[17] = Homo sapiens, five-dose, SW-620
[18] = Homo sapiens, five-dose, read-out: LC50 (the source's name)
[19] = Homo sapiens, five-dose, MOLT-4
[20] = Homo sapiens, five-dose, OVCAR-8
[21] = Homo sapiens, five-dose, SK-MEL-2
[22] = Homo sapiens, five-dose, NCI-H522

Compound: Cc1nc(SCC(=O)N2CCN(c3cc4c(cc3F)c(=O)c(C(=O)O)cn4C3CC3)CC2)sc1C(=O)/C=C/c1cccc(Cl)c1 [Compound 4b, (E)-7-(4-(2-((5-(3-(3-Chlorophenyl)acryloyl)-4-methylthiazol-2-yl)thio)acetyl)piperazin-1-yl)-1-cyclopropyl-6-fluoro-4-oxo-1,4-dihydroquinoline-3-carboxylic Acid]
- GI50 ([1]; Homo sapiens): 3.9 µM
- IC50 ([1]; Homo sapiens): > 100 µM
- CC50 ([1]; Homo sapiens, read-out: LC50 (the source's name)): > 100 µM
- TGI [1]: 15.5 µM
- activity at 10 µM ([2]; Homo sapiens, SF-539, 10 μM, SF-539, CNS Cancer, read-out: Growth percentage): 22.1%
- GI50 [2, 16]: 3.7 µM
- IC50 [2, 16]: 15.1 µM
- CC50 ([2]; Homo sapiens, five-dose, SF-539, read-out: LC50 (the source's name)): > 100 µM
- TGI ([2]; five-dose, SF-539): 61.7 µM
- activity at 10 µM ([3]; Homo sapiens, 10 μM, SW-620, Colon Cancer, read-out: Growth percentage): 53.3%
- GI50 [3, 17]: 10.5 µM
- IC50 [3, 17]: 15.1 µM
- CC50 ([3]; Homo sapiens, five-dose, SW-620, read-out: LC50 (the source's name)): > 100 µM
- TGI ([3]; five-dose, SW-620): 40.7 µM
- GI50 ([4]; Homo sapiens, MDA-MB-231): > 100 µM
- IC50 ([4]; Homo sapiens, MDA-MB-231): > 100 µM
- CC50 ([4]; Homo sapiens, five-dose, MDA-MB-231/ATCC, read-out: LC50 (the source's name)): > 100 µM
- TGI ([4]; five-dose, MDA-MB-231/ATCC): 100.0 µM
- activity at 10 µM ([5]; Homo sapiens, 10 μM, TK-10, Renal Cancer, read-out: Growth percentage): 108%
- GI50 ([5]; Homo sapiens, five-dose, TK-10): > 100 µM
- IC50 ([5]; Homo sapiens, five-dose, TK-10): > 100 µM
- CC50 ([5]; Homo sapiens, five-dose, TK-10, read-out: LC50 (the source's name)): > 100 µM
- TGI ([5]; five-dose, TK-10): 100.0 µM
- activity at 10 µM ([6]; Homo sapiens, 10 μM, Non-Small-Cell Lung Cancer, read-out: Growth percentage): 82.4%
- GI50 ([6]; Homo sapiens, five-dose): > 100 µM
- IC50 ([6]; Homo sapiens, five-dose): > 100 µM
- CC50 [6, 18]: > 100 µM
- TGI ([6]; five-dose): 100.0 µM
- CC50 ([7]; Homo sapiens, read-out: LC50): 0.6 to 100 µM
- activity at 10 µM ([7]; Homo sapiens, read-out: Mean growth percentage): 49.6%
- Full-panel MG-MID ([7]; mean sensitivity across all cell lines in the panel): 70.3 µM
- IC50 ([8]; Homo sapiens, HL-60, five-dose): 3.7 µM
- GI50 ([8]; Homo sapiens, five-dose): 2.6 µM
- CC50 [8, 18]: 34.7 µM
- TGI ([8]; five-dose): 11.2 µM
- activity at 10 µM ([9]; Homo sapiens, 10 μM, MOLT-4, Leukemia, read-out: Growth percentage): 66.1%
- GI50 [9, 19]: 12.9 µM
- IC50 [9, 19]: 21.9 µM
- LC50 (concentration killing 50% of cells) [9, 19]: 56.2 µM
- TGI ([9]; five-dose, MOLT-4): 26.9 µM
- activity at 10 µM ([10]; Homo sapiens, 10 μM, SK-OV-3, Ovarian Cancer, read-out: Growth percentage): 46.3%
- IC50 ([10]; Homo sapiens, five-dose, SK-OV-3): > 100 µM
- CC50 ([10]; Homo sapiens, five-dose, SK-OV-3, read-out: LC50 (the source's name)): > 100 µM
- TGI ([10]; five-dose, SK-OV-3): 100.0 µM
- activity at 10 µM ([11]; Homo sapiens, 10 μM, OVCAR-8, Ovarian Cancer, read-out: Growth percentage): 46.1%
- GI50 [11, 20]: > 100 µM
- IC50 [11, 20]: > 100 µM
- CC50 ([11]; Homo sapiens, five-dose, OVCAR-8, read-out: LC50 (the source's name)): > 100 µM
- TGI ([11]; five-dose, OVCAR-8): 100.0 µM
- activity at 10 µM ([12]; Homo sapiens, 10 μM, Ovarian Cancer, read-out: Growth percentage): 112%
- GI50 ([12]; Homo sapiens, five-dose): > 100 µM
- IC50 ([12]; Homo sapiens, five-dose): > 100 µM
- CC50 [12, 18]: > 100 µM
- TGI ([12]; five-dose): 100.0 µM
- activity at 10 µM ([13]; Homo sapiens, 10 μM, SK-MEL-2, Melanoma, read-out: Growth percentage): 60.8%
- GI50 [13, 21]: 46.8 µM
- IC50 [13, 21]: > 100 µM
- CC50 ([13]; Homo sapiens, five-dose, SK-MEL-2, read-out: LC50 (the source's name)): > 100 µM
- TGI ([13]; five-dose, SK-MEL-2): 100.0 µM
- activity at 10 µM ([14]; Homo sapiens, 10 μM, Leukemia, read-out: Growth percentage): 49.7%
- GI50 ([14]; Homo sapiens, five-dose): 6.9 µM
- IC50 ([14]; Homo sapiens, five-dose): 11.7 µM
- CC50 [14, 18]: > 100 µM
- TGI ([14]; five-dose): 31.6 µM
- activity at 10 µM ([15]; Homo sapiens, 10 μM, NCI-H522, Non-Small-Cell Lung Cancer, read-out: Growth percentage): 98.5%
- GI50 [15, 22]: > 100 µM
- IC50 [15, 22]: > 100 µM
- LC50 (concentration killing 50% of cells) [15, 22]: > 100 µM
- TGI ([15]; five-dose, NCI-H522): 100.0 µM
